From US20090305993A1, “METHODS AND COMPOSITION FOR THE TREATMENT OF GASTROINTESTINAL DISORDERS” (IRONWOOD PHARMACEUTICALS, INC., priority 2006, published 2009)
Read-outs that look alike come from different tables or passages of the source. Where a SMILES comes first, the peptide text is derived from it. Bridges are numbered along the chain shown (N, C = ends).

What was measured:
[1] = system: healthy males and postmenopausal females; test: single oral dose study in humans, bowel habits (BSFS); format: in vivo, human
Method: Single doses of 30, 100, 300, 1000 or 3000 μg of chemically synthesized SEQ ID NO:3 were given to 30 healthy males and postmenopausal females. At each dose level (100 μg was done twice) SEQ ID NO:3 or placebo (vehicle) was administered orally in 5.0 mL 50 mM phosphate buffer (pH 6.0) plus 3×20 mL water rinses and 175 mL water after at least a 10-hour fast. In each dosing group, subjects were randomized to receive either placebo (1 subject) or SEQ ID NO:3 (3-4 subjects). Bowel habits (including Bristol Stool Form Scale score (BSFS; FIG. 14a), stool frequency, and stool weight) were evaluated for each collected bowel movement 48 hours prior to dose and up to approximately 48 hours postdose.

[2] = target: T1, GC-C receptors on the cell surface of human colonic cells (T84 cells) (Homo sapiens, UniProt P25092); test: competitive radioligand-binding assay on T84 cells
T1 construct: host or cells: T84 cells (whole cells in suspension)
Method: The radiolabeled tracer used in these experiments was ^125I-SEQ ID NO:7. To determine binding constants, competitive inhibition of binding was used. T84 cells were cultured in T-150 plastic flasks in DMEM and Ham's F-12 medium containing 5% fetal bovine serum. Monolayers at 60-70% confluency (approximately 10^7 cells) were collected by gentle scraping followed by centrifugation, and washed twice in 50 mL of phosphate-buffered saline (PBS). The cells were resuspended in 1 mL DMEM containing 20 mM […] (Hepes), pH 7.0 and 0.5% bovine serum albumin (BSA). T84 cells were incubated with a constant amount of ^125I-SEQ ID NO:7 containing various concentrations of cold competitor. Free ^125I-SEQ ID NO:7 was separated from bound tracer by rapid suction filtration. The binding reactions were carried out in 1.5 mL microfuge tubes in 0.24 mL of DMEM/20 mM Hepes pH 7.0/0.5% BSA containing: 2.5×10^5 T84 cells (0.25 mg protein), 200,000 cpm ^125I-SEQ ID NO:7 (41 fmol, […]), and 0.01 to 1,000 nM competitor. Binding assays at pH 5.0 were done in DMEM/20 mM 2-(N-morpholino) ethanesulfonic acid (Mes), pH 5.0. Binding assays in pH 8.0 were done in DMEM/20 mM Hepes/50 mM sodium bicarbonate pH 8.0. One sample contained no competitor (B0) and another contained no cells. After incubation at 37° C. for 1 h, the reaction mixtures were applied to Whatman GF/B glass-fiber filters by suction filtration. The filters were then rinsed with 10 mL ice-cold PBS buffer, inserted into plastic tubes, and added to 2 mL scintillation fluid. Radioactivity was measured in a LS 6500 liquid scintillation counter (Beckman-Coulter). The percent bound in each sample is calculated by the equation:
% B/B0=(sample cpm−no cells cpm)×100/(B0 cpm−no cells cpm)
Competitive radioligand-binding curves were generated using the Graphpad PRISM™ computer program. […] The apparent dissociation equilibrium constant (Ki) for each competitor was obtained from the IC50 values and the previously reported estimate of the dissociation constant for the radioligand, Kd≈15 nM (Hamra et al. 1997 PNAS 2705-10) and the method of Cheng and Prusoff 1973 Biochem Pharmacol 22:3099-108. Using a two site model, high and low affinity-binding sites were identified on T84 cells (Ki1 and Ki2) for all the test agents. At pH 7.0. for SEQ ID NO:3 Ki1 ranged from 0.89-1.23 nM and Ki2 ranged from 88.9-156 nM.

WT and GC-C KO mice = test: TNBS visceral hypersensitivity model in WT and GC-C KO mice; format: in vivo, mouse; settings: oral 0.01 μg/kg, FIG. 7d
Method: TNBS induced visceral hypersensitivity was assessed in WT and GC-C KO mice. Two groups (WT and GC-C KO) of male mice (22-25 g) were surgically prepared for electromyographic (EMG) recordings. Three electrodes were implanted in the striated muscles of the abdomen for EMG recording of abdominal contractions. Colorectal distension (CRD) was performed with a balloon inflated by 10s steps of 0.02 ml from 0 to 0.12 ml. Under basal conditions mice were submitted to control CRD (time 0) followed by oral administration of SEQ ID NO:3 (0.01 and 0.3 μg/kg) or vehicle only (distilled water, 1 ml) at 3 hours. One hour post dosing the CRD procedure was repeated. Abdominal EMG contractile response to colorectal distension in basal conditions in both WT and GC-C KO mice (12-14 mice per group) was determined in the absence of vehicle and SEQ ID NO:3, and the mean+/−standard error of the mean (SEM) is graphically depicted in FIG. 7c.
For TNBS induced visceral hypersensitivity conditions, mice were submitted to control CRD (time 0) and TNBS (20 mg/kg) was administered at 3 days. […] The effect of SEQ ID NO:3 ([…]) on abdominal response to colorectal distension after TNBS in WT and GC-C KO mice (12-14 per group) at a volume distension of […] was determined and the mean+/−standard error of the mean (SEM) is graphically depicted in FIG. 7d.

suckling mice = test: suckling mouse model of intestinal secretion (SuMi assay); format: in vivo; settings: dose response, FIG. 5a, 5b
Method: In this model a test compound is administered to suckling mice that are between 7 and 9 days old. After the mice are sacrificed, the gastrointestinal tract from the stomach to the cecum is dissected (“guts”). The remains (“carcass”) as well as the guts are weighed and the ratio of guts to carcass weight is calculated. If the ratio is above 0.09, one can conclude that the test compound increases intestinal secretion. […] The effect of Zelnorm® was also studied.

[3] = absorbability study in mice, ELISA detection; format: in vivo; settings: CD1, mouse, serum, IV and oral, FIG. 10a, read-out: bioavailable
Method: To study the pharmacokinetics of SEQ ID NO:3, absorbability studies in mice were performed by administering SEQ ID NO:3 intravaneously via tail vein injection or orally by gavage to 8-week-old CD1 mice. Serum was collected from the animals at various time points and tested for the presence of SEQ ID NO:3 using a competitive enzyme-linked immunoabsorbent assay (Oxoid, ST EIA kit, Cat#TD0700). The assay utilized monoclonal antibodies against ST peptide (antibodies are provided in the Oxoid kit) and synthetically manufactured SEQ ID NO:3.

T1 sequence (P25092 24-1073): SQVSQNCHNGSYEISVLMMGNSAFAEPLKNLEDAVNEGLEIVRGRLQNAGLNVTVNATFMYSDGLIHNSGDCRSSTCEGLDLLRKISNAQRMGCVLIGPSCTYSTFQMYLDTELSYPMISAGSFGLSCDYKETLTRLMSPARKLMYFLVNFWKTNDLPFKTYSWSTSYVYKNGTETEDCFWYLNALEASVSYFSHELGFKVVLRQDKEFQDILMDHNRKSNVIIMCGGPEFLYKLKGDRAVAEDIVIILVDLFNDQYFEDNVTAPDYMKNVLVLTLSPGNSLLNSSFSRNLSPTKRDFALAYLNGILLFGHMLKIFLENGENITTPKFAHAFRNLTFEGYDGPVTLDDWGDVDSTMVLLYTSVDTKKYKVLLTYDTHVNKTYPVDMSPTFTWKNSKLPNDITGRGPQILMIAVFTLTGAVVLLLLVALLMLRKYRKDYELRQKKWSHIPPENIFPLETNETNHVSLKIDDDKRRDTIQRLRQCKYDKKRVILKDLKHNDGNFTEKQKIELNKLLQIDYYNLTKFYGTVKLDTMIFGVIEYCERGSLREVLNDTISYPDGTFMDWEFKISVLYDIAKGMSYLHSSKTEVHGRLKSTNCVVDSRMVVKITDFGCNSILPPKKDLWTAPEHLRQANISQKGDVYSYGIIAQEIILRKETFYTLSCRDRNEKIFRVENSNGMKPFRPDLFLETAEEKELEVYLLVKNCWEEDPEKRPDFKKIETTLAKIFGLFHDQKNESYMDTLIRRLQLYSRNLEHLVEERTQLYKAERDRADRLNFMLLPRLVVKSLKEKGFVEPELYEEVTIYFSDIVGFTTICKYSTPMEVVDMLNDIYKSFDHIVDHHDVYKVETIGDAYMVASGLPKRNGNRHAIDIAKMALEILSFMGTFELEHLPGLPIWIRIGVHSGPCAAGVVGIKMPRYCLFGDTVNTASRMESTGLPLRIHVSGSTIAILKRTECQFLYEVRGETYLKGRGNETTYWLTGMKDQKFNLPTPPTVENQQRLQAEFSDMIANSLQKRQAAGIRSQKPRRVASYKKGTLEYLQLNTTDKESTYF

Q: Which “percent of subjects with at least a 2-point increase in BSFS consistency score” value ([1]; 1000 μg dose group, mean pre-dose compared to peak 48 hours post-dose, FIG. 14c) does the source give for `C[C@@H]1NC(=O)[C@@H]2CCCN2C(=O)[C@H](CC(N)=O)NC(=O)[C@@H]2CSSC[C@H](N)C(=O)N[C@H]3CSSC[C@H](NC1=O)C(=O)N[C@@H]([C@@H](C)O)C(=O)NCC(=O)N[C@H](C(=O)N[C@@H](Cc1ccc(O)cc1)C(=O)O)CSSC[C@H](NC(=O)[C@H](Cc1ccc(O)cc1)NC(=O)[C@H](CCC(=O)O)NC3=O)C(=O)N2` [SEQ ID NO:3] (H-CCEYCCNPACTGCY-OH; disulfide 1-6, 2-10, 5-13; N-terminus and C-terminus assumed) here?
A: The value was “highest percent of subjects”.

Q: What about the “BSFS post-dose scores versus dose” value ([1]; single oral dose 30-3000 μg) of the same molecule?
A: Its value is “Higher BSFS post-dose scores correlated with a higher dose”.

Q: What about the “maximum BSFS score” value ([1]; single oral dose 30-3000 μg, FIG. 14b) of the same molecule?
A: The value was “increase”.

Q: What about the “effect of pH on binding to the high affinity site, Ki1” value ([2]; pH 5, 7 and 8) of the same molecule?
A: The value was “not affected by pH”.

Q: And the Ki ([2]; pH 5.0, T84 cells, read-out: Ki1 (high affinity site))?
A: The Ki was 1.38 nM.

Q: And the Ki ([2]; pH 5.0, T84 cells, read-out: Ki2 (low affinity site))?
A: Its Ki is 17 nM.

Q: And the Ki ([2]; pH 8.0, T84 cells, read-out: Ki1 (high affinity site))?
A: Its Ki is 0.6 nM.

Q: And the Ki ([2]; pH 8.0, T84 cells, read-out: Ki2 (low affinity site))?
A: The Ki was 94.4 nM.

Q: What about the “TNBS induced hypersensitivity to CRD” value (WT and GC-C KO mice; GC-C KO mice) of the same molecule?
A: Its value is “A similar effect was not observed”.

Q: And the “TNBS induced hypersensitivity to CRD” value (WT and GC-C KO mice; WT mice)?
A: The value was “reduces the TNBS induced hypersensitivity to CRD”.

Q: And the “intestinal secretion (ratio of guts to carcass weight)” value (suckling mice)?
A: Its value is “increase intestinal secretion”.

Q: What about the bioavailability [3] of the same molecule?
A: The bioavailability was less than 2.2%.
